Reference: paper PMC11045757, “Group 3 medulloblastoma transcriptional networks collapse under domain specific EP300/CBP inhibition” (Nature Communications, 2024)

System: 460 barcoded cancer cell lines
Assay: PRISM pooled barcoded cancer cell line growth screen, 10-point dose-response, 5 days, AUC
Assay type: cell-based
Parameters: scale not given here
Source text: Several small molecule inhibitors of distinct protein domains of EP300/CBP are available, though the majority target the histone acetyltransferase domain (HAT) or bromodomain (BRD)[5],[10],[21],[22]. […] We used these tools to investigate the relative contribution of the EP300/CBP BRD or HAT domain to tumor cell growth (Fig. 1a). To do so, we performed 10-point, dose-response growth assays using mixed pools of 460 barcoded cancer cell lines, over five days of treatment in vitro[33],[34]. Growth was measured using an area-under-the-curve (AUC) approach (Supplementary Table 1, Supplementary Fig. 1a). […] Given potential differences in compound penetration and solubility, and to compare the relative cell line and tumor-specific effects of these two compounds in assays performed non-simultaneously, we performed a median normalization of each dataset (Supplementary Table 2).

CO[C@H]1CC[C@H](n2c([C@@H]3CCCC(=O)N3c3ccc(F)c(F)c3)nc3cc(-c4c(C)noc4C)ccc32)CC1 [CCS1477]
AUC (22RV1, Prostate Cancer): 0.7824
AUC (42MGBA, Glioma): 0.959
AUC (143B, Osteosarcoma): 0.7756
AUC (639V, Bladder Cancer): 1
AUC (647V, Bladder Cancer): 0.9387
AUC (697, B-cell Leukemia): 0.8421
AUC (769P, Kidney Cancer): 0.866
AUC (5637, Bladder Cancer): 0.9709
AUC (8305C, Thyroid Cancer): 0.9842
AUC (A101D, Melanoma): 0.9949
AUC (A204, Rhabdoid): 0.6935
AUC (A253, Head and Neck Cancer): 0.8895
AUC (A375, Melanoma): 0.896
AUC (A427, Lung Cancer): 0.8534
AUC (A673, Ewing Sarcoma): 0.974
AUC (A1207, Glioblastoma): 1
AUC (ACHN, Kidney Cancer): 0.9303
AUC (AM38, Glioblastoma): 0.9422
AUC (AN3CA, Endometrial/Uterine Cancer): 0.9421
AUC (AU565, Breast Cancer): 0.9734
AUC (BDCM, AML): 0.9113
AUC (BEN, Lung Cancer): 0.7123
AUC (BFTC905, Bladder Cancer): 0.9629
AUC (BHT101, Thyroid Cancer): 0.7216
AUC (BICR16, Head and Neck Cancer): 0.7276
AUC (BICR18, Head and Neck Cancer): 0.7534
AUC (BICR22, Head and Neck Cancer): 0.8618
AUC (BICR31, Head and Neck Cancer): 0.8654
AUC (BICR56, Head and Neck Cancer): 0.8942
AUC (BT16, Rhabdoid): 0.8481
AUC (BT474, Breast Cancer): 0.9512
AUC (C32, Melanoma): 0.5879
AUC (C8166, Lymphoma): 0.8246
AUC (CADOES1, Ewing Sarcoma): 0.8986
AUC (CAKI1, Kidney Cancer): 0.9906
AUC (CAL27, Head and Neck Cancer): 0.9982
AUC (CAL54, Kidney Cancer): 0.8391
AUC (CAL62, Thyroid Cancer): 0.9564
AUC (CAL78, Chondrosarcoma): 0.8691
AUC (CAL120, Breast Cancer): 0.9482
AUC (CAOV3, Ovarian Cancer): 0.8478
AUC (CBAGPN, Ewing Sarcoma): 0.8224
AUC (CCK81, Colon/Colorectal Cancer): 0.8227
AUC (CHL1, Melanoma): 0.6111
AUC (CHLA06ATRT, Rhabdoid): 1
AUC (CHLA10, Ewing Sarcoma): 0.9814
AUC (CHLA15, Neuroblastoma): 0.7397
AUC (CHLA57, Ewing Sarcoma): 0.9985
AUC (CHP212, Neuroblastoma): 0.8537
AUC (CI1, B-cell Lymphoma): 0.9278
AUC (CJM, Melanoma): 0.8842
AUC (CL11, Colon/Colorectal Cancer): 0.761
AUC (CL34, Colon/Colorectal Cancer): 0.9427
AUC (CMLT1, CML): 0.8343
AUC (COGAR359, Rhabdoid): 1
AUC (COGE352, Ewing Sarcoma): 0.998
AUC (COLO320, Colon/Colorectal Cancer): 0.8831
AUC (COLO678, Colon/Colorectal Cancer): 0.8848
AUC (COLO783, Melanoma): 0.9736
AUC (COLO792, Melanoma): 0.8076
AUC (CORL23, Lung Cancer): 0.9125
AUC (CORL105, Lung Cancer): 0.8782
AUC (COV318, Ovarian Cancer): 0.899
AUC (COV434, Ovarian Cancer): 0.9687
AUC (CW2, Colon/Colorectal Cancer): 0.9939
AUC (CW9019, Rhabdomyosarcoma): 0.9021
AUC (DAOY, Medulloblastoma): 0.8871
AUC (DEL, Lymphoma): 1
AUC (DETROIT562, Head and Neck Cancer): 0.9177
AUC (DKMG, Glioblastoma): 1
AUC (DL, Rhabdoid): 0.7415
AUC (DMS53, Lung Cancer): 0.712
AUC (DMS273, Lung Cancer): 1
AUC (DND41, T-acute leukemia): 0.9395
AUC (DU145, Prostate Cancer): 0.9501
AUC (DU4475, Breast Cancer): 0.7484
AUC (DV90, Lung Cancer): 0.9154
AUC (EB1, Lymphoma): 0.7489
AUC (EBC1, Lung Cancer): 0.7317
AUC (ECC10, Gastric Cancer): 0.9776
AUC (ECGI10, Esophageal Cancer): 0.9953
AUC (EFE184, Endometrial/Uterine Cancer): 0.7698
AUC (EFM19, Breast Cancer): 0.7512
AUC (EFO21, Ovarian Cancer): 0.9901
AUC (EM2, CML): 0.9432
AUC (EN, Endometrial/Uterine Cancer): 1
AUC (ES2, Ovarian Cancer): 0.9355
AUC (ESS1, Endometrial/Uterine Cancer): 0.9966
AUC (EW8, Ewing Sarcoma): 1
AUC (EWS502, Ewing Sarcoma): 0.7102
AUC (FADU, Head and Neck Cancer): 0.8918
AUC (FTC133, Thyroid Cancer): 0.9601
AUC (FTC238, Thyroid Cancer): 0.9961
AUC (G292CLONEA141B1, Osteosarcoma): 1
AUC (G361, Melanoma): 0.6349
AUC (G401, Rhabdoid): 0.8875
AUC (G402, Rhabdoid): 0.8394
AUC (GB1, Glioblastoma): 0.7767
AUC (GCT, Pleomorphic Sarcoma): 0.9612
AUC (GI1, Glioblastoma): 0.7855
AUC (GOS3, Glioblastoma): 0.984
AUC (GP2D, Colon/Colorectal Cancer): 0.7748
AUC (GRANTA519, Lymphoma): 0.9571
AUC (GSS, Gastric Cancer): 0.646
AUC (HARA, Lung Cancer): 0.9612
AUC (HCC33, Lung Cancer): 0.9669
AUC (HCC38, Breast Cancer): 0.8868
AUC (HCC44, Lung Cancer): 0.9456
AUC (HCC56, Colon/Colorectal Cancer): 0.9605
AUC (HCC78, Lung Cancer): 0.8972
AUC (HCC95, Lung Cancer): 0.9968
AUC (HCC515, Lung Cancer): 0.7803
AUC (HCC1419, Breast Cancer): 0.8162
AUC (HCC1428, Breast Cancer): 0.8123
AUC (HCC1438, Lung Cancer): 0.9027
AUC (HCC1806, Breast Cancer): 0.9831
AUC (HCC1937, Breast Cancer): 1
AUC (HCC2108, Lung Cancer): 0.7949
AUC (HCC4006, Lung Cancer): 0.9703
AUC (HCT116, Colon/Colorectal Cancer): 0.9792
AUC (HDMYZ, Lymphoma): 0.8423
AUC (HDQP1, Breast Cancer): 0.939
AUC (HEC1B, Endometrial/Uterine Cancer): 0.8393
AUC (HEC6, Endometrial/Uterine Cancer): 0.9929
AUC (HEC50B, Endometrial/Uterine Cancer): 0.7901
AUC (HEL9217, AML): 0.6249
AUC (HEL, AML): 0.5914
AUC (HEP3B217, Liver Cancer): 0.9151
AUC (HEPG2, Liver Cancer): 0.7882
AUC (HEYA8, Ovarian Cancer): 0.9726
AUC (HGC27, Gastric Cancer): 0.9831
AUC (HH, Lymphoma): 0.8948
AUC (HOS, Osteosarcoma): 0.9628
AUC (HPBALL, T-acute leukemia): 0.9516
AUC (HS294T, Melanoma): 0.9659
AUC (HS766T, Pancreatic Cancer): 0.9722
AUC (HSC2, Head and Neck Cancer): 0.9695
AUC (HSC3, Head and Neck Cancer): 0.9769
AUC (HT29, Colon/Colorectal Cancer): 0.658
AUC (HT115, Colon/Colorectal Cancer): 0.9413
AUC (HT144, Melanoma): 1
AUC (HT1197, Bladder Cancer): 0.9485
AUC (HT, B-cell Lymphoma): 0.7078
AUC (HUCCT1, Bile Duct Cancer): 0.9905
AUC (HUG1N, Gastric Cancer): 0.95
AUC (HUH1, Liver Cancer): 0.8468
AUC (HUH7, Liver Cancer): 1
AUC (HUH28, Bile Duct Cancer): 0.9991
AUC (HUPT3, Pancreatic Cancer): 0.8687
AUC (HUPT4, Pancreatic Cancer): 0.7771
AUC (HUT78, Lymphoma): 0.9925
AUC (IALM, Lung Cancer): 0.7856
AUC (IGR37, Melanoma): 1
AUC (IGROV1, Ovarian Cancer): 0.9601
AUC (IM95, Gastric Cancer): 0.8194
AUC (IPC298, Melanoma): 0.9388
AUC (ISHIKAWAHERAKLIO02ER, Endometrial/Uterine Cancer): 0.9971
AUC (ISTMES1, Lung Cancer): 0.9282
AUC (J82, Bladder Cancer): 1
AUC (JEKO1, Lymphoma): 0.9796
AUC (JHH1, Liver Cancer): 0.7664
AUC (JHH4, Liver Cancer): 0.9641
AUC (JHH5, Liver Cancer): 0.6818
AUC (JHH7, Liver Cancer): 0.9818
AUC (JHOC5, Ovarian Cancer): 1
AUC (JHUEM7, Endometrial/Uterine Cancer): 0.8239
AUC (JVM3, B-cell Leukemia): 0.9481
AUC (K029AX, Melanoma): 0.7327
AUC (KALS1, Glioblastoma): 0.99
AUC (KARPAS620, Myeloma): 0.9486
AUC (KATOIII, Gastric Cancer): 0.9783
AUC (KCL22, CML): 0.7293
AUC (KD, Rhabdoid): 0.7052
AUC (KE37, T-acute leukemia): 0.8049
AUC (KE39, Gastric Cancer): 1
AUC (KELLY, Neuroblastoma): 0.8609
AUC (KMBC2, Bladder Cancer): 0.8012
AUC (KMS11, Myeloma): 0.8305
AUC (KMS12BM, Myeloma): 0.8083
AUC (KMS18, Myeloma): 0.8881
AUC (KMS21BM, Myeloma): 0.9427
AUC (KMS28BM, Myeloma): 0.7058
AUC (KMS34, Myeloma): 0.8725
AUC (KNS42, Glioblastoma): 0.9251
AUC (KNS60, Glioblastoma): 0.8942
AUC (KNS62, Lung Cancer): 0.9516
AUC (KP3, Pancreatic Cancer): 1
AUC (KPNYN, Neuroblastoma): 0.9626
AUC (KS1, Glioma): 0.7921
AUC (KU1919, Bladder Cancer): 0.7361
AUC (KYM1, Rhabdoid): 0.9475
AUC (KYSE30, Esophageal Cancer): 0.989
AUC (KYSE150, Esophageal Cancer): 0.988
AUC (KYSE410, Esophageal Cancer): 0.9549
AUC (KYSE510, Esophageal Cancer): 0.928
AUC (KYSE520, Esophageal Cancer): 0.9953
AUC (LAMA84, CML): 0.8874
AUC (LC1SQSF, Lung Cancer): 0.9937
AUC (LCLC103H, Lung Cancer): 0.945
AUC (LI7, Liver Cancer): 0.8469
AUC (LK2, Lung Cancer): 0.7132
AUC (LMSU, Gastric Cancer): 0.9918
AUC (LN18, Glioblastoma): 0.9905
AUC (LNCAPCLONEFGC, Prostate Cancer): 0.7183
AUC (LOUNH91, Lung Cancer): 1
AUC (LOVO, Colon/Colorectal Cancer): 0.6312
AUC (LOXIMVI, Melanoma): 0.8683
AUC (LS180, Colon/Colorectal Cancer): 0.9873
AUC (LS411N, Colon/Colorectal Cancer): 0.9732
AUC (LUDLU1, Lung Cancer): 0.9677
AUC (LXF289, Lung Cancer): 0.9728
AUC (M059K, Glioblastoma): 0.8113
AUC (MALME3M, Melanoma): 0.7988
AUC (MC116, B-cell Lymphoma): 0.9377
AUC (MCAS, Ovarian Cancer): 0.9952
AUC (MCF7, Breast Cancer): 0.7913
AUC (MDAMB175VII, Breast Cancer): 0.9996
AUC (MDAMB231, Breast Cancer): 0.8811
AUC (MDAMB361, Breast Cancer): 0.7401
AUC (MDAMB436, Breast Cancer): 1
AUC (MDAMB453, Breast Cancer): 0.5759
AUC (MDAMB468, Breast Cancer): 1
AUC (MDST8, Colon/Colorectal Cancer): 0.9162
AUC (MELHO, Melanoma): 0.7224
AUC (MESSA, Uterine Sarcoma): 0.7646
AUC (MFE280, Endometrial/Uterine Cancer): 0.8205
